Assay [1] is described as follows: Inhibition of beta-lactamase AmpC (unknown origin) by UV-Vis spectrophotometry.
Assay [2] is described as follows: Competitive inhibition of beta-lactamase AmpC (unknown origin) by Lineweaver-Burk plot analysis.
Assay [3] can be described thus: Reversible competitive inhibition of beta-lactamase AmpC (unknown origin).

The Ki is a measure of affinity in units of concentration, obtained from inhibition or displacement. A higher Ki goes with weaker binding.

In assay [1], `O=C(O)c1ccc(CNS(=O)(=O)c2ccsc2C(=O)O)cc1` displayed a Ki of 18 µM.

In assay [2], `O=C(O)c1ccc(CCNS(=O)(=O)c2ccsc2C(=O)O)cc1` registered a Ki of 26 µM.

Compound `O=C(O)c1sccc1S(=O)(=O)Nc1ccc(Cl)cc1` showed a Ki in assay [3] of 26 µM.

Consider `O=C(O)c1ccc(NS(=O)(=O)c2ccsc2C(=O)O)cc1`, for which, in assay [1], the affinity corresponds to a Ki of 1.7 µM.

In turn, `Cc1ccc(CNS(=O)(=O)c2ccsc2C(=O)O)cc1` yielded a Ki in assay [1] of 58 µM.

The compound `O=C(O)c1ccc(CCCNS(=O)(=O)c2ccsc2C(=O)O)cc1` gave a Ki in assay [1] of 19 µM.

The compound `O=C(O)c1sccc1S(=O)(=O)NCc1ccc(Cl)cc1` yielded an inhibition constant (Ki) in assay [1] of 112 µM.

Values taken from ChEMBL document CHEMBL3286217, “Structure-based efforts to optimize a non-β-lactam inhibitor of AmpC β-lactamase” (Bioorg Med Chem, 2014).
